Reference: the supplement of paper PMC10307832

Key:
Assay in all cases: relative viability (nuclei count vs DMSO), 5 days (fraction); higher = more cells survive
Quizartinib + Dasatinib = compound: CC(C)(C)c1cc(NC(=O)Nc2ccc(-c3cn4c(n3)sc3cc(OCCN5CCOCC5)ccc34)cc2)no1 [Quizartinib] + Cc1nc(Nc2ncc(C(=O)Nc3c(C)cccc3Cl)s2)cc(N2CCN(CCO)CC2)n1 [Dasatinib] (partner 0.075 µM)
Summary of the method: (§1)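 Lung cancer cell lines in 1536-well plates got either a single drug or a fixed anchor-drug dose together with five library-drug doses (not always all listed) in √10 steps, by pin tool, on the day after seeding. Nuclei were counted after 5 days, and relative viability is the treated-to-vehicle ratio of nuclei counts. Values are medians of duplicate plates.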

YM155 + Bortezomib = compound: COCC[n+]1c2c(n(Cc3cnccn3)c1C)C(=O)c1ccccc1C2=O [YM155] + CC(C)C[C@H](NC(=O)[C@H](Cc1ccccc1)NC(=O)c1cnccn1)B(O)O [Bortezomib] (partner 0.002 µM)
Summary of the method: as §1

YM155 + Tozasertib = compound: COCC[n+]1c2c(n(Cc3cnccn3)c1C)C(=O)c1ccccc1C2=O [YM155] + Cc1cc(Nc2cc(N3CCN(C)CC3)nc(Sc3ccc(NC(=O)C4CC4)cc3)n2)n[nH]1 [Tozasertib] (partner 0.1 µM)
Summary of the method: as §1

YM155 + Pemetrexed = compound: COCC[n+]1c2c(n(Cc3cnccn3)c1C)C(=O)c1ccccc1C2=O [YM155] + Nc1nc2[nH]cc(CCc3ccc(C(=O)N[C@@H](CCC(=O)O)C(=O)O)cc3)c2c(=O)[nH]1 [Pemetrexed] (partner 0.2 µM)
Summary of the method: as §1

Cell Line	relative viability (Quizartinib + Dasatinib; first compound 0.001 µM)	relative viability (Quizartinib + Dasatinib; first compound 0.003162 µM)	relative viability (Quizartinib + Dasatinib; first compound 0.01 µM)	relative viability (Quizartinib + Dasatinib; first compound 0.03162 µM)	relative viability (Quizartinib + Dasatinib; first compound 0.1 µM)	relative viability (YM155 + Bortezomib; first compound 0.002 µM)	relative viability (YM155 + Bortezomib; first compound 0.006325 µM)	relative viability (YM155 + Bortezomib; first compound 0.02 µM)	relative viability (YM155 + Bortezomib; first compound 0.06325 µM)	relative viability (YM155 + Tozasertib; first compound 0.002 µM)	relative viability (YM155 + Tozasertib; first compound 0.006325 µM)	relative viability (YM155 + Tozasertib; first compound 0.02 µM)	relative viability (YM155 + Tozasertib; first compound 0.06325 µM)	relative viability (YM155 + Pemetrexed; first compound 0.002 µM)	relative viability (YM155 + Pemetrexed; first compound 0.006325 µM)	relative viability (YM155 + Pemetrexed; first compound 0.02 µM)	relative viability (YM155 + Pemetrexed; first compound 0.06325 µM)
201T	0.588	0.563	0.621	0.574	0.57	1.04	1.13	1.09	1.06	0.916	0.961	0.955	0.974	0.31	0.406	0.298	0.28
A-427	–	0.718	0.706	0.657	0.663	0.972	0.99	1.17	0.896	0.238	0.191	0.243	0.177	0.941	1.02	1	0.762
ABC-1	0.578	0.572	0.661	–	0.502	0.271	0.4	0.241	0.209	0.163	0.164	0.137	0.151	–	–	–	–
BEN	0.292	0.335	0.347	0.257	0.318	0.665	0.849	0.852	0.906	0.565	0.518	0.587	0.581	0.63	0.839	0.934	0.908
CAL-12T	0.382	0.489	0.535	0.388	0.328	–	1.04	1.29	0.895	0.311	0.336	0.376	0.149	1.23	1.22	1.11	0.569
COR-L23	0.452	0.437	0.557	0.414	0.461	0.923	0.929	0.617	0.362	0.201	0.175	0.133	0.126	0.194	0.198	0.18	0.136
COR-L 105	0.385	0.408	0.413	0.381	0.283	0.682	0.81	0.958	0.786	0.345	0.352	0.316	0.327	1.01	1.04	1	0.602
Calu-6	–	–	–	–	–	0.966	0.84	0.298	0.188	–	–	–	–	–	–	–	–
ChaGo-K-1	0.595	0.543	0.588	0.606	0.56	1.02	1.01	0.927	0.956	0.22	0.208	0.24	0.236	0.261	0.243	0.26	0.254
EBC-1	–	–	–	–	–	0.613	0.458	0.566	0.593	–	–	–	–	–	–	–	–
EKVX	–	0.588	0.514	0.56	0.602	0.955	0.934	1.08	0.984	0.401	0.411	0.448	0.379	0.431	0.437	0.399	0.234
EMC-BAC-2	0.296	0.299	0.294	–	0.375	1.03	1.08	1.04	1.06	0.265	0.256	0.273	0.275	0.456	0.486	0.463	0.424
EPLC-272H	0.326	0.366	0.4	0.38	0.377	0.846	1.04	0.875	0.862	0.349	0.198	0.449	0.223	0.327	0.309	0.316	0.319
H3255	0.414	0.347	0.366	0.346	0.345	0.711	0.719	0.858	0.693	0.68	0.59	0.616	0.351	0.587	0.627	0.565	0.566
HARA	–	0.231	0.252	0.215	0.268	1.06	1.1	1.14	1.04	0.0954	0.122	0.13	0.121	–	0.235	0.228	0.268
HCC-15	–	0.58	0.594	–	0.6	0.939	1.02	0.965	0.953	0.4	0.369	0.472	0.251	0.239	0.229	0.23	0.242
HCC-44	–	–	–	–	–	0.871	0.908	0.968	0.936	1.01	1.01	0.888	0.273	0.615	0.722	0.624	0.643
HCC-78	0.354	0.53	0.308	0.294	0.346	0.536	0.569	0.552	0.656	0.442	0.454	0.52	0.498	0.896	0.954	0.935	0.913
